In US6355799B1, “Substituted benzene compounds, process for their preparation, and herbicidal and defoliant compositions containing them” (ISK Americas Incorporated, priority 1997, dated 2002):

What was measured:
Assay type in all cases: in vivo
[1] = system: redroot pigweed (Amaranthus retroflexus, AMARE); experiment: Pre-emerge test, greenhouse herbicide activity screening; conditions: phytotoxicity rating 0-100, 14 days after application
Method in brief: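 Compounds in acetone were track-sprayed at 187 l/ha, 15–1000 g ai/ha, onto sandy loam pots. Pre-emerge seeds were sown one day before spraying, with surface watering afterwards. Post-emerge plants were at the 2–3 leaf stage and sprayed with 0.25% v/v non-ionic surfactant. Injury was rated 0–100 at 14 days.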

[2] = system: barnyardgrass (Echinochloa crus-galli, ECHCG); experiment: as above; conditions: phytotoxicity rating 0-100, 14 days after application
Method in brief: (§1)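 Sandy loam pots; pre-emerge: sown 1 d pre-spray, surface-watered after, then bottom-watered. Post-emerge: sown 8–21 d before, 2–3 leaf stage, + 0.25% v/v NIS, bottom-watered. Acetone, 187 l/ha track spray, 15–1000 g ai/ha. 0–100 injury score, day 14.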

[3] = system: green foxtail (Setaria viridis, SETVI); experiment: as above; conditions: phytotoxicity rating 0-100, 14 days after application
Method in brief: as §1

[4] = system: ivyleaf morningglory (Ipomoea hederacea, IPOHE); experiment: as above; conditions: phytotoxicity rating 0-100, 14 days after application
Method in brief: as §1

[5] = system: johnsongrass (Sorghum halepense, SORHA); experiment: as above; conditions: phytotoxicity rating 0-100, 14 days after application
Method in brief: as §1

[6] = system: lambsquarters (Chenopodium album, CHEAL); experiment: as above; conditions: phytotoxicity rating 0-100, 14 days after application
Method in brief: as §1

[7] = system: large crabgrass (Digitaria sanguinalis, DIGSA); experiment: as above; conditions: phytotoxicity rating 0-100, 14 days after application
Method in brief: as §1

[8] = system: sicklepod (Cassia obtusifolia, CASOB); experiment: as above; conditions: phytotoxicity rating 0-100, 14 days after application
Method in brief: as §1

[9] = system: velvetleaf (Abutilon theophrasti, ABUTH); experiment: as above; conditions: phytotoxicity rating 0-100, 14 days after application
Method in brief: as §1

[10] = system: field corn (Zea mays L., var. Dekalb 535, CORN); experiment: Pre-emerge test, crop safety; conditions: crop damage rating 0-100, 14 days after application
Method in brief: (§2)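 Compounds in acetone were track-sprayed at 15-1000 g ai/ha (187 l/ha) on sandy loam pots: pre-emerge one day after seeding, post-emerge at 2-3 leaf stage with 0.25% v/v non-ionic surfactant. Phytotoxicity was rated 14 days later on a 0 (no damage) to 100 (complete death) scale.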

[11] = system: upland rice (Oryza sp., var. Tebonnet, RICE); experiment: Pre-emerge test, crop safety; conditions: crop damage rating 0-100, 14 days after application
Method in brief: as §2

[12] = system: barnyardgrass (Echinochloa crus-galli, ECHCG); experiment: Post-emerge test, greenhouse herbicide activity screening; conditions: post-emerge, 14 days after application, rating scale 0-100
Method in brief: as §2

[13] = system: green foxtail (Setaria viridis, SETVI); experiment: as above; conditions: post-emerge, 14 days after application, rating scale 0-100
Method in brief: as §2

[14] = system: ivyleaf morningglory (Ipomoea hederacea, IPOHE); experiment: as above; conditions: post-emerge, 14 days after application, rating scale 0-100
Method in brief: as §2

[15] = system: johnsongrass (Sorghum halepense, SORHA); experiment: as above; conditions: post-emerge, 14 days after application, rating scale 0-100
Method in brief: as §2

[16] = system: lambsquarters (Chenopodium album, CHEAL); experiment: as above; conditions: post-emerge, 14 days after application, rating scale 0-100
Method in brief: as §2

[17] = system: large crabgrass (Digitaria sanguinalis, DIGSA); experiment: as above; conditions: post-emerge, 14 days after application, rating scale 0-100
Method in brief: as §2

[18] = system: redroot pigweed (Amaranthus retroflexus, AMARE); experiment: as above; conditions: post-emerge, 14 days after application
Method in brief: as §2

[19] = system: sicklepod (Cassia obtusifolia, CASOB); experiment: as above; conditions: post-emerge, 14 days after application, rating scale 0-100
Method in brief: as §2

[20] = system: velvetleaf (Abutilon theophrasti, ABUTH); experiment: as above; conditions: post-emerge, 14 days after application, rating scale 0-100
Method in brief: as §2

[21] = system: field corn (Zea mays L., var. Dekalb 535, CORN); experiment: Post-emerge test, crop safety; conditions: post-emerge, 14 days after application, rating scale 0-100
Method in brief: as §1

[22] = system: upland rice (Oryza sp., var. Tebonnet, RICE); experiment: Post-emerge test, crop safety; conditions: post-emerge, 14 days after application, rating scale 0-100
Method in brief: as §1

[23] = 63 g ai/ha, rating scale 0-100 (0 no damage, 100 complete death)
[24] = 250 g ai/ha, rating scale 0-100

## COc1c(Cl)cc(F)c(-n2c(=O)cc(C(F)(F)F)n(C)c2=O)c1NC(=O)C1CC1 [2-206]
[1]; 63 g ai/ha
  Pre-emerge Herbicidal Activity AMARE: 0
[1]; 250 g ai/ha
  Pre-emerge Herbicidal Activity AMARE: 80
[2]; 63 g ai/ha
  Pre-emerge Herbicidal Activity ECHCG: 0
[2]; 250 g ai/ha
  Pre-emerge Herbicidal Activity ECHCG: 90
[3]; 63 g ai/ha
  Pre-emerge Herbicidal Activity SETVI: 0
[3]; 250 g ai/ha
  Pre-emerge Herbicidal Activity SETVI: 70
[4]; 63 g ai/ha
  Pre-emerge Herbicidal Activity IPOHE: 50
[4]; 250 g ai/ha
  Pre-emerge Herbicidal Activity IPOHE: 90
[5]; 63 g ai/ha
  Pre-emerge Herbicidal Activity SORHA: 0
[5]; 250 g ai/ha
  Pre-emerge Herbicidal Activity SORHA: 40
[6]; 63 g ai/ha
  Pre-emerge Herbicidal Activity CHEAL: 50
[6]; 250 g ai/ha
  Pre-emerge Herbicidal Activity CHEAL: 100
[7]; 63 g ai/ha
  Pre-emerge Herbicidal Activity DIGSA: 0
[7]; 250 g ai/ha
  Pre-emerge Herbicidal Activity DIGSA: 80
[8]; 63 g ai/ha
  Pre-emerge Herbicidal Activity CASOB: 20
[8]; 250 g ai/ha
  Pre-emerge Herbicidal Activity CASOB: 60
[9]; 63 g ai/ha
  Pre-emerge Herbicidal Activity ABUTH: 70
[9]; 250 g ai/ha
  Pre-emerge Herbicidal Activity ABUTH: 100
[10]; 63 g ai/ha
  Pre-emerge Herbicidal Activity CORN: 50
[10]; 250 g ai/ha
  Pre-emerge Herbicidal Activity CORN: 100
[11]; 63 g ai/ha
  Pre-emerge Herbicidal Activity RICE: 60
[11]; 250 g ai/ha
  Pre-emerge Herbicidal Activity RICE: 80
[12]; 63 g ai/ha
  phytotoxicity rating ECHCG: 0
[12]; 250 g ai/ha
  phytotoxicity rating ECHCG: 30
[13]; 63 g ai/ha
  phytotoxicity rating SETVI: 0
[13]; 250 g ai/ha
  phytotoxicity rating SETVI: 0
[14]; 63 g ai/ha
  phytotoxicity rating IPOHE: 70
[14]; 250 g ai/ha
  phytotoxicity rating IPOHE: 90
[15]; 63 g ai/ha
  phytotoxicity rating SORHA: 0
[15]; 250 g ai/ha
  phytotoxicity rating SORHA: 0
[16]; 63 g ai/ha
  phytotoxicity rating CHEAL: 50
[16]; 250 g ai/ha
  phytotoxicity rating CHEAL: 70
[17]; 63 g ai/ha
  phytotoxicity rating DIGSA: 30
[17]; 250 g ai/ha
  phytotoxicity rating DIGSA: 20
[18]; [23]
  phytotoxicity rating AMARE: 20
[18]; [24]
  phytotoxicity rating AMARE: 50
[19]; 63 g ai/ha
  phytotoxicity rating CASOB: 50
[19]; 250 g ai/ha
  phytotoxicity rating CASOB: 80
[20]; 63 g ai/ha
  phytotoxicity rating ABUTH: 50
[20]; 250 g ai/ha
  phytotoxicity rating ABUTH: 90
[21]; 63 g ai/ha
  phytotoxicity rating CORN (crop damage): 0
[21]; 250 g ai/ha
  phytotoxicity rating CORN (crop damage): 0
[22]; 63 g ai/ha
  phytotoxicity rating RICE (crop damage): 0
[22]; 250 g ai/ha
  phytotoxicity rating RICE (crop damage): 70

## Cn1c(C(F)(F)F)cc(=O)n(-c2c(F)cc(Cl)c(Oc3ncccc3[N+](=O)[O-])c2NC(=O)c2ccc3ccccc3c2)c1=O [2-199]
[1]; 63 g ai/ha
  Pre-emerge Herbicidal Activity AMARE: 100
[1]; 250 g ai/ha
  Pre-emerge Herbicidal Activity AMARE: 100
[2]; 63 g ai/ha
  Pre-emerge Herbicidal Activity ECHCG: 99
[2]; 250 g ai/ha
  Pre-emerge Herbicidal Activity ECHCG: 100
[3]; 63 g ai/ha
  Pre-emerge Herbicidal Activity SETVI: 100
[3]; 250 g ai/ha
  Pre-emerge Herbicidal Activity SETVI: 100
[4]; 63 g ai/ha
  Pre-emerge Herbicidal Activity IPOHE: 100
[4]; 250 g ai/ha
  Pre-emerge Herbicidal Activity IPOHE: 100
[5]; 63 g ai/ha
  Pre-emerge Herbicidal Activity SORHA: 100
[5]; 250 g ai/ha
  Pre-emerge Herbicidal Activity SORHA: 100
[6]; 63 g ai/ha
  Pre-emerge Herbicidal Activity CHEAL: 100
[6]; 250 g ai/ha
  Pre-emerge Herbicidal Activity CHEAL: 100
[7]; 63 g ai/ha
  Pre-emerge Herbicidal Activity DIGSA: 100
[7]; 250 g ai/ha
  Pre-emerge Herbicidal Activity DIGSA: 100
[8]; 63 g ai/ha
  Pre-emerge Herbicidal Activity CASOB: 100
[8]; 250 g ai/ha
  Pre-emerge Herbicidal Activity CASOB: 100
[9]; 63 g ai/ha
  Pre-emerge Herbicidal Activity ABUTH: 100
[9]; 250 g ai/ha
  Pre-emerge Herbicidal Activity ABUTH: 100
[10]; 63 g ai/ha
  Pre-emerge Herbicidal Activity CORN: 95
[10]; 250 g ai/ha
  Pre-emerge Herbicidal Activity CORN: 100
[11]; 63 g ai/ha
  Pre-emerge Herbicidal Activity RICE: 99
[11]; 250 g ai/ha
  Pre-emerge Herbicidal Activity RICE: 100
[12]; 63 g ai/ha
  phytotoxicity rating ECHCG: 60
[12]; 250 g ai/ha
  phytotoxicity rating ECHCG: 100
[13]; 63 g ai/ha
  phytotoxicity rating SETVI: 50
[13]; 250 g ai/ha
  phytotoxicity rating SETVI: 90
[14]; 63 g ai/ha
  phytotoxicity rating IPOHE: 100
[14]; 250 g ai/ha
  phytotoxicity rating IPOHE: 100
[15]; 63 g ai/ha
  phytotoxicity rating SORHA: 40
[15]; 250 g ai/ha
  phytotoxicity rating SORHA: 95
[16]; 63 g ai/ha
  phytotoxicity rating CHEAL: 100
[16]; 250 g ai/ha
  phytotoxicity rating CHEAL: 100
[17]; 63 g ai/ha
  phytotoxicity rating DIGSA: 30
[17]; 250 g ai/ha
  phytotoxicity rating DIGSA: 95
[18]; [23]
  phytotoxicity rating AMARE: 95
[18]; [24]
  phytotoxicity rating AMARE: 100
[19]; 63 g ai/ha
  phytotoxicity rating CASOB: 100
[19]; 250 g ai/ha
  phytotoxicity rating CASOB: 100
[20]; 63 g ai/ha
  phytotoxicity rating ABUTH: 100
[20]; 250 g ai/ha
  phytotoxicity rating ABUTH: 100
[21]; 63 g ai/ha
  phytotoxicity rating CORN (crop damage): 30
[21]; 250 g ai/ha
  phytotoxicity rating CORN (crop damage): 90
[22]; 63 g ai/ha
  phytotoxicity rating RICE (crop damage): 80
[22]; 250 g ai/ha
  phytotoxicity rating RICE (crop damage): 90
